Legend:
[1] = Example 3 plasma pharmacokinetics, normal hepatic function vs hepatic impairment; conditions: normal hepatic function; single intranasal 160 mg cocaine HCl; plasma
[2] = Example 2 plasma pharmacokinetics, normal renal function vs severe renal impairment; conditions: for AUC(0-t) / AUC(0-inf) / Cmax / Tmax / half-life: both, human, 160 mg
[3] = normal renal function, single intranasal 160 mg cocaine HCl, plasma
[4] = severe renal impairment vs normal renal function, ANOVA
[5] = severe renal impairment, single intranasal 160 mg cocaine HCl, plasma

SMILES: COC(=O)[C@H]1[C@@H](OC(=O)c2ccccc2)C[C@@H]2CC[C@H]1N2C [Cocaine, cocaine, reference compound]
- Clast (Max) [1]: 0.405 ng/mL
- Clast (Mean) [1]: 0.210 ng/mL
- Clast (Median) [1]: 0.160 ng/mL
- Clast (Min) [1]: 0.102 ng/mL
- Cmax (Max) [1]: 75.2 ng/mL
- Cmax (Min) [1]: 7.64 ng/mL
- Tlast (Geometric mean) [1]: 24.7 h
- Tlast (Max) [1]: 32.0 h
- Tlast (Mean) [1]: 26.0 h
- Tlast (Median) [1]: 28.0 h
- Tlast (Min) [1]: 720 min
- t1/2 (Max) [1]: 22.5 h
- t1/2 (Min) [1]: 110 min
- CL/F (Geometric Least Squares Mean, ANOVA) ([2]; Impaired renal function (severe), single intranasal 160 mg cocaine HCl): 1333 L/h
- AUC(0-t) ([2]; plasma, inhaled or intranasal, AUC0→t (Geometric mean), normal renal function, single intranasal 160 mg cocaine HCl): 78.7 ng·h/mL
- AUC(0-t) ([2]; plasma, inhaled or intranasal, AUC0→t (Geometric mean), severe renal impairment, single intranasal 160 mg cocaine HCl): 106 ng·h/mL
- AUC(0-t) ([2]; plasma, inhaled or intranasal, AUC0→t (Mean), normal renal function, single intranasal 160 mg cocaine HCl): 83.5 ng·h/mL
- AUC(0-t) ([2]; plasma, inhaled or intranasal, AUC0→t (Mean), severe renal impairment, single intranasal 160 mg cocaine HCl): 119 ng·h/mL
- AUC(0-t) ([2]; plasma, inhaled or intranasal, AUC0→t (Median), normal renal function, single intranasal 160 mg cocaine HCl): 91.6 ng·h/mL
- AUC(0-t) ([2]; plasma, inhaled or intranasal, AUC0→t (Median), severe renal impairment, single intranasal 160 mg cocaine HCl): 109 ng·h/mL
- AUC(0-inf) ([2]; plasma, inhaled or intranasal, AUC0→∞ (Geometric mean), normal renal function, single intranasal 160 mg cocaine HCl): 80.5 ng·h/mL
- AUC(0-inf) ([2]; plasma, inhaled or intranasal, AUC0→∞ (Geometric mean), severe renal impairment, single intranasal 160 mg cocaine HCl): 107 ng·h/mL
- AUC(0-inf) ([2]; plasma, inhaled or intranasal, AUC0→∞ (Mean), normal renal function, single intranasal 160 mg cocaine HCl): 85 ng·h/mL
- AUC(0-inf) ([2]; plasma, inhaled or intranasal, AUC0→∞ (Mean), severe renal impairment, single intranasal 160 mg cocaine HCl): 120 ng·h/mL
- AUC(0-inf) ([2]; plasma, inhaled or intranasal, AUC0→∞ (Median), normal renal function, single intranasal 160 mg cocaine HCl): 92.9 ng·h/mL
- AUC(0-inf) ([2]; plasma, inhaled or intranasal, AUC0→∞ (Median), severe renal impairment, single intranasal 160 mg cocaine HCl): 110 ng·h/mL
- AUC(0-t) ([2]; plasma, inhaled or intranasal, AUClast (Geometric Least Squares Mean, ANOVA), Impaired renal function (severe), single intranasal 160 mg cocaine HCl): 106 ng·h/mL
- AUC(0-t) ([2]; plasma, inhaled or intranasal, AUClast (Geometric Least Squares Mean, ANOVA), Normal renal function, single intranasal 160 mg cocaine HCl): 78.7 ng·h/mL
- Cmax ([2]; plasma, inhaled or intranasal, Cmax (Geometric Least Squares Mean, ANOVA), Impaired renal function (severe), single intranasal 160 mg cocaine HCl): 47.9 ng/mL
- Cmax ([2]; plasma, inhaled or intranasal, Cmax (Geometric Least Squares Mean, ANOVA), Normal renal function, single intranasal 160 mg cocaine HCl): 35.9 ng/mL
- Cmax ([2]; plasma, inhaled or intranasal, Cmax (Geometric mean), normal renal function, single intranasal 160 mg cocaine HCl): 35.9 ng/mL
- Cmax ([2]; plasma, inhaled or intranasal, Cmax (Geometric mean), severe renal impairment, single intranasal 160 mg cocaine HCl): 47.9 ng/mL
- Cmax ([2]; plasma, inhaled or intranasal, Cmax (Mean), normal renal function, single intranasal 160 mg cocaine HCl): 38.1 ng/mL
- Cmax ([2]; plasma, inhaled or intranasal, Cmax (Mean), severe renal impairment, single intranasal 160 mg cocaine HCl): 57.8 ng/mL
- Cmax ([2]; plasma, inhaled or intranasal, Cmax (Median), normal renal function, single intranasal 160 mg cocaine HCl): 37 ng/mL
- Cmax ([2]; plasma, inhaled or intranasal, Cmax (Median), severe renal impairment, single intranasal 160 mg cocaine HCl): 55.4 ng/mL
- Cmax ([2]; plasma, inhaled or intranasal, Cmax, range observed, renally impaired patients, soaked absorbent articles on nasal mucous membranes): 21.9 to 93.7 ng/mL
- Tmax ([2]; plasma, inhaled or intranasal, Tmax (Geometric mean), normal renal function, single intranasal 160 mg cocaine HCl): 0.518 h
- Tmax ([2]; plasma, inhaled or intranasal, Tmax (Geometric mean), severe renal impairment, single intranasal 160 mg cocaine HCl): 0.429 h
- Tmax ([2]; plasma, inhaled or intranasal, Tmax (Mean), normal renal function, single intranasal 160 mg cocaine HCl): 0.583 h
- Tmax ([2]; plasma, inhaled or intranasal, Tmax (Mean), severe renal impairment, single intranasal 160 mg cocaine HCl): 0.448 h
- Tmax ([2]; plasma, inhaled or intranasal, Tmax (Median), severe renal impairment, single intranasal 160 mg cocaine HCl): 0.417 h
- Tmax ([2]; plasma, inhaled or intranasal, median Tmax, normal renal function, single intranasal 160 mg cocaine HCl): 0.5 h
- half-life ([2]; plasma, inhaled or intranasal, t1/2 (Geometric mean), normal renal function, single intranasal 160 mg cocaine HCl): 4.12 h
- half-life ([2]; plasma, inhaled or intranasal, t1/2 (Geometric mean), severe renal impairment, single intranasal 160 mg cocaine HCl): 5.42 h
- half-life ([2]; plasma, inhaled or intranasal, t1/2 (Mean), normal renal function, single intranasal 160 mg cocaine HCl): 5 h
- half-life ([2]; plasma, inhaled or intranasal, t1/2 (Mean), severe renal impairment, single intranasal 160 mg cocaine HCl): 6.02 h
- half-life ([2]; plasma, inhaled or intranasal, t1/2 (Median), normal renal function, single intranasal 160 mg cocaine HCl): 3.89 h
- half-life ([2]; plasma, inhaled or intranasal, t1/2 (Median), severe renal impairment, single intranasal 160 mg cocaine HCl): 6.39 h
- AUC(0-inf) ([2]; plasma, other: intranasal (drug-soaked pledgets in the nasal cavity), AUCinf, range observed, renally impaired patients): 61.2 to 180 ng·h/mL
- Tmax ([2]; plasma, other: intranasal (drug-soaked pledgets in the nasal cavity), Tmax, range observed, renally impaired patients): 0.301 to 0.595 h
- CL/F (Geometric Least Squares Mean, ANOVA) ([2]; normal renal function, single intranasal 160 mg cocaine HCl): 1774 L/h
- AUC0→t (Max) [2, 3]: 109.9 ng·h/mL
- AUC0→t (Min) [2, 3]: 34.29 ng·h/mL
- AUC0→∞ (Max) [2, 3]: 110.3 ng·h/mL
- AUC0→∞ (Min) [2, 3]: 37.67 ng·h/mL
- Clast (Geometric mean) [2, 3]: 0.209 ng/mL
- Clast (Max) [2, 3]: 0.626 ng/mL
- Clast (Mean) [2, 3]: 0.263 ng/mL
- Clast (Median) [2, 3]: 0.154 ng/mL
- Clast (Min) [2, 3]: 0.114 ng/mL
- Cmax (Max) [2, 3]: 62.7 ng/mL
- Cmax (Min) [2, 3]: 16.7 ng/mL
- Tlast (Geometric mean) [2, 3]: 20.6 h
- Tlast (Max) [2, 3]: 32.0 h
- Tlast (Mean) [2, 3]: 22.5 h
- Tlast (Median) [2, 3]: 24.0 h
- Tlast (Min) [2, 3]: 720 min
- Tmax (Max) [2, 3]: 1.500 h
- t1/2 (Max) [2, 3]: 10.67 h
- t1/2 (Min) [2, 3]: 124 min
- CL/F, percent lower than in normal subjects ([2]; renal impairment vs normal renal function): approximately 25%
- plasma exposure (geometric mean Cmax, AUC), percent higher than in normal subjects ([2]; severe renal impairment vs normal renal function): approximately 33%
- AUClast Ratio Impaired/Normal [2, 4]: 134.46%
- CL/F Ratio Impaired/Normal [2, 4]: 75.13%
- Cmax Ratio Impaired/Normal [2, 4]: 133.28%
- AUC0→t (Max) [2, 5]: 221 ng·h/mL
- AUC0→t (Min) [2, 5]: 43.0 ng·h/mL
- AUC0→∞ (Max) [2, 5]: 227 ng·h/mL
- AUC0→∞ (Min) [2, 5]: 44.2 ng·h/mL
- Clast (Geometric mean) [2, 5]: 0.159 ng/mL
- Clast (Max) [2, 5]: 0.432 ng/mL
- Clast (Mean) [2, 5]: 0.186 ng/mL
- Clast (Median) [2, 5]: 0.131 ng/mL
- Clast (Min) [2, 5]: 0.102 ng/mL
- Cmax (Max) [2, 5]: 131.0 ng/mL
- Cmax (Min) [2, 5]: 14.1 ng/mL
- Tlast (Geometric mean) [2, 5]: 26.9 h
- Tlast (Max) [2, 5]: 32.0 h
- Tlast (Mean) [2, 5]: 28.0 h
- Tlast (Median) [2, 5]: 32.0 h
- Tlast (Min) [2, 5]: 720 min
- t1/2 (Max) [2, 5]: 8.65 h
- t1/2 (Min) [2, 5]: 91.8 min

— patent publication US10413505B1, “Pharmaceutical compositions and methods of using the same” (priority 2017, dated 2019)
